Laboratory results reported in ChEMBL document CHEMBL1201862, “PubChem BioAssay data set” (2004).
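Method: 48-hour compound exposure of cells in 96-well plates, five concentrations, linear interpolation of endpoints. GI50 is the concentration that inhibits growth by half.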 Activity calls are given as the source filed them. Rule as the data show it: active = GI50 up to about 1.1 µM and inactive = higher.

Legend:
Assay in all cases: NCI anticancer screen, dose series, 48 h
DMS-273 = tested on: DMS-273
RPMI-8226 = tested on: RPMI-8226
M14 = tested on: M14
OVCAR-3 = tested on: OVCAR-3
HL-60 = tested on: HL-60
KM-20L2 = tested on: KM-20L2
SF-295 = tested on: SF-295
SK-MEL-28 = tested on: SK-MEL-28
COLO 205 = tested on: COLO 205
SR = tested on: SR
HCC 2998 = tested on: HCC 2998
UACC-257 = tested on: UACC-257
LOX IMVI = tested on: LOX IMVI
HT-29 = tested on: HT-29
SNB-19 = tested on: SNB-19
HCT-15 = tested on: HCT-15
HOP-62 = tested on: HOP-62
K562 = tested on: K562
SNB-75 = tested on: SNB-75
CCRF-CEM = tested on: CCRF-CEM
NCI-H460 = tested on: NCI-H460
SW-620 = tested on: SW-620
NCI-H226 = tested on: NCI-H226
DMS-114 = tested on: DMS-114
TK-10 = tested on: TK-10
EKVX = tested on: EKVX
SN12C = tested on: SN12C
A549 = tested on: A549
U-251 = tested on: U-251
OVCAR-4 = tested on: OVCAR-4
SK-MEL-5 = tested on: SK-MEL-5
HCT-116 = tested on: HCT-116
UO-31 = tested on: UO-31
IGROV-1 = tested on: IGROV-1
SNB-78 = tested on: SNB-78
RXF 393 = tested on: RXF 393
NCI-H23 = tested on: NCI-H23
OVCAR-8 = tested on: OVCAR-8
UACC-62 = tested on: UACC-62
DLD-1 = tested on: DLD-1
M19-MEL = tested on: M19-MEL
SF-268 = tested on: SF-268
KM12 = tested on: KM12
SF-539 = tested on: SF-539
MOLT-4 = tested on: MOLT-4
LXFL 529 = tested on: LXFL 529
ACHN = tested on: ACHN
786-0 = tested on: 786-0
SK-OV-3 = tested on: SK-OV-3
OVCAR-5 = tested on: OVCAR-5
CAKI-1 = tested on: CAKI-1
SK-MEL-2 = tested on: SK-MEL-2
A498 = tested on: A498
NCI-H522 = tested on: NCI-H522
Malme-3M = tested on: Malme-3M

## COC(=O)CCCN(C)c1nc(N)n[nH]1
DMS-273
  GI50: > 100 µM (inactive)
RPMI-8226
  GI50: > 100 µM (inactive)
M14
  GI50: > 100 µM (inactive)
OVCAR-3
  GI50: > 100 µM (inactive)
HL-60
  GI50: > 100 µM (inactive)
KM-20L2
  GI50: > 100 µM (inactive)
SF-295
  GI50: > 100 µM (inactive)
SK-MEL-28
  GI50: > 100 µM (inactive)
COLO 205
  GI50: > 100 µM (inactive)
SR
  GI50: > 100 µM (inactive)
HCC 2998
  GI50: > 100 µM (inactive)
UACC-257
  GI50: > 100 µM (inactive)
LOX IMVI
  GI50: > 100 µM (inactive)
HT-29
  GI50: > 100 µM (inactive)
SNB-19
  GI50: > 100 µM (inactive)
HCT-15
  GI50: > 100 µM
HOP-62
  GI50: > 100 µM (inactive)
K562
  GI50: > 100 µM (inactive)
SNB-75
  GI50: 66.2 µM (inactive)
CCRF-CEM
  GI50: > 100 µM (inactive)
NCI-H460
  GI50: > 100 µM (inactive)
SW-620
  GI50: > 100 µM (inactive)
NCI-H226
  GI50: > 100 µM (inactive)
DMS-114
  GI50: > 100 µM (inactive)
TK-10
  GI50: > 100 µM (inactive)
EKVX
  GI50: > 100 µM (inactive)
SN12C
  GI50: > 100 µM (inactive)
A549
  GI50: > 100 µM (inactive)
U-251
  GI50: > 100 µM (inactive)
OVCAR-4
  GI50: > 100 µM (inactive)
SK-MEL-5
  GI50: > 100 µM (inactive)
HCT-116
  GI50: > 100 µM (inactive)
UO-31
  GI50: > 100 µM (inactive)
IGROV-1
  GI50: > 100 µM (inactive)
SNB-78
  GI50: > 100 µM (inactive)
RXF 393
  GI50: > 100 µM (inactive)
NCI-H23
  GI50: > 100 µM (inactive)
OVCAR-8
  GI50: > 100 µM (inactive)
UACC-62
  GI50: > 100 µM (inactive)
DLD-1
  GI50: > 100 µM (inactive)
M19-MEL
  GI50: > 100 µM (inactive)
SF-268
  GI50: > 100 µM (inactive)
KM12
  GI50: > 100 µM (inactive)
SF-539
  GI50: > 100 µM (inactive)
MOLT-4
  GI50: > 100 µM (inactive)
LXFL 529
  GI50: > 100 µM (inactive)
ACHN
  GI50: > 100 µM (inactive)
786-0
  GI50: > 100 µM (inactive)
SK-OV-3
  GI50: > 100 µM (inactive)
OVCAR-5
  GI50: > 100 µM (inactive)

## COC(=O)[C@]1(C)CCC[C@]2(C)C3CC4OOC3(C=C4C(C)C)CCC21 (stereo partly specified)
DMS-273
  GI50: 18.5 µM (inactive)
RPMI-8226
  GI50: 12.7 µM (inactive)
CAKI-1
  GI50: 21.9 µM (inactive)
M14
  GI50: 15.5 µM (inactive)
OVCAR-3
  GI50: 31.8 µM (inactive)
HL-60
  GI50: 2.07 µM (inactive)
KM-20L2
  GI50: 17.9 µM (inactive)
SF-295
  GI50: 16.3 µM (inactive)
COLO 205
  GI50: 19.7 µM (inactive)
SR
  GI50: 9.66 µM (inactive)
SK-MEL-2
  GI50: 17.2 µM (inactive)
HCC 2998
  GI50: 16.5 µM (inactive)
UACC-257
  GI50: 17.3 µM (inactive)
LOX IMVI
  GI50: 2.77 µM (inactive)
HT-29
  GI50: 14.7 µM (inactive)
SNB-19
  GI50: 17.4 µM (inactive)
HCT-15
  GI50: 16.5 µM
HOP-62
  GI50: 24.5 µM (inactive)
K562
  GI50: 12 µM (inactive)
CCRF-CEM
  GI50: 3.01 µM (inactive)
NCI-H460
  GI50: 12.4 µM (inactive)
SW-620
  GI50: 16 µM (inactive)
NCI-H226
  GI50: 19.6 µM (inactive)
DMS-114
  GI50: 13.7 µM (inactive)
TK-10
  GI50: 23.4 µM (inactive)
EKVX
  GI50: 16.7 µM (inactive)
SN12C
  GI50: 16.8 µM (inactive)
A498
  GI50: 11.4 µM (inactive)
A549
  GI50: 16.8 µM (inactive)
U-251
  GI50: 19.8 µM (inactive)
OVCAR-4
  GI50: 19.9 µM (inactive)
NCI-H522
  GI50: 1.78 µM (inactive)
SK-MEL-5
  GI50: 16.1 µM (inactive)
HCT-116
  GI50: 15.7 µM (inactive)
UO-31
  GI50: 15.2 µM (inactive)
IGROV-1
  GI50: 16 µM (inactive)
SNB-78
  GI50: 16.5 µM (inactive)
NCI-H23
  GI50: 18.8 µM (inactive)
OVCAR-8
  GI50: 19.8 µM (inactive)
UACC-62
  GI50: 17.1 µM (inactive)
DLD-1
  GI50: 12.7 µM (inactive)
Malme-3M
  GI50: 20.8 µM (inactive)
SF-268
  GI50: 15.4 µM (inactive)
KM12
  GI50: 17.4 µM (inactive)
SF-539
  GI50: 17 µM (inactive)
MOLT-4
  GI50: 16.9 µM (inactive)
LXFL 529
  GI50: 13.7 µM (inactive)
ACHN
  GI50: 17.4 µM (inactive)
786-0
  GI50: 5.51 µM (inactive)
SK-OV-3
  GI50: 20.1 µM (inactive)
OVCAR-5
  GI50: 19.6 µM (inactive)
